Tests used:
[1] = test system: PC-3 human prostate cancer cells; assay: In vivo anti-tumor efficacy, PC-3 xenograft; conditions: Prostate cancer PC-3, nu/nu Balb/c mice, 50 mg/kg oral once per day, n = 2 × 3
Protocol: (§1) Female (nu/nu) Balb/c athymic mice at 4-6 weeks of age were injected subcutaneously (s.c.) with MDA-MB-231 human breast cancer cells, A549 human non-small cell lung cancer cells, U87-MG human glioblastoma cells, PC-3 human prostate cancer cells, HT-29 human colon cancer, BEL-7404 human hepatocellular carcinoma, or MKN-45 human gastric cancer cells (ATCC, 5×10^6 cells suspended in 100 μl DMEM medium). Treatment was initiated after the tumor mass grown from s.c. implanted tumor cells reached a median volume of 200-400 mm^3. Mice were randomized into groups with three in each group for small-sample efficacy tests such that the median tumor volume is nearly equal among all groups. For large-sample efficacy tests, mice were randomized into groups with thirteen or fourteen in each group. Each group was treated either with compounds (dissolved in 2:1 mixture of PEG400 and 0.01N HCl (v/v)) or without compounds (vehicle only, 2:1 mixture of PEG400 and 0.01N HCl (v/v)) once per day at dose 12.5, 25, 50 or 100 mg/kg by oral gavage. Tumor volumes were assessed at least twice weekly by caliper measurement from the start of treatment. Tumor volume was calculated using the formula ½×L×W^2 (L: length of tumor's long axis, W: length of tumor's short axis). Treatment was applied for at least two weeks or until the tumor volume reaches a size of ˜2500 mm^3 or greater. Mice were humanly sacrificed after the experiment. The efficacy of compounds in reducing tumor growth was assessed by the index Tumor Growth Inhibition (TGI). TGI for a given treatment period was calculated using the group mean tumor volumes according to the formula: TGI=100×(VVehicle—group−VTreatment—group)÷VVehicle—group wherein VVehicle—group represents the mean tumor volume for the group treated with vehicle and VTreatment—group represents the mean tumor volume of the group treated with a compound.

[2] = test system: A549 human non-small cell lung cancer cells; assay: In vivo anti-tumor efficacy, A549 xenograft; conditions: Non-small cell lung cancer A549, nu/nu Balb/c mice, 50 mg/kg oral once per day, n = 2 × 3
Protocol: as §1

c-Met = target: T1, c-Met (Homo sapiens, UniProt P08581); assay: c-Met cell-based assay (phospho-c-Met ELISA, A549 cells); conditions: compound at 100 nM
T1 construct: endogenous in cells; host or cells: A549 cells
Outline: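 Serum-starved A549 cells (NSCLC) pretreated 2 h with compound (0.5 nM to 500 nM), then stimulated 20 min with 20% FBS. Lysates analysed by ELISA for phospho-c-Met and total c-Met with streptavidin-HRP chemiluminescence.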

VEGFR2 = target: T2, VEGFR2 (Homo sapiens, UniProt P35968); assay: VEGFR2 cell-based assay (phospho-VEGFR2 ELISA, transfected CHO cells); conditions: compound at 100 nM, read-out: % VEGFR2 kinase activity remains
T2 construct: expressed in transfected cells; host or cells: CHO cells, pcDNA3.1 plasmid
Outline: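 Serum-starved CHO cells transfected with full-length VEGFR2 treated 2 h with compound (0.5–500 nM), then stimulated with 20% FBS. Lysates analyzed by ELISA for phospho- and total VEGFR2 using streptavidin-HRP chemiluminescence.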

[3] = test system: MKN-45 human gastric cancer cells; assay: In vivo anti-tumor efficacy, MKN-45 xenograft; conditions: Gastric cancer MKN-45, nu/nu Balb/c mice
Protocol: as §1

T1 sequence (P08581 25-1390): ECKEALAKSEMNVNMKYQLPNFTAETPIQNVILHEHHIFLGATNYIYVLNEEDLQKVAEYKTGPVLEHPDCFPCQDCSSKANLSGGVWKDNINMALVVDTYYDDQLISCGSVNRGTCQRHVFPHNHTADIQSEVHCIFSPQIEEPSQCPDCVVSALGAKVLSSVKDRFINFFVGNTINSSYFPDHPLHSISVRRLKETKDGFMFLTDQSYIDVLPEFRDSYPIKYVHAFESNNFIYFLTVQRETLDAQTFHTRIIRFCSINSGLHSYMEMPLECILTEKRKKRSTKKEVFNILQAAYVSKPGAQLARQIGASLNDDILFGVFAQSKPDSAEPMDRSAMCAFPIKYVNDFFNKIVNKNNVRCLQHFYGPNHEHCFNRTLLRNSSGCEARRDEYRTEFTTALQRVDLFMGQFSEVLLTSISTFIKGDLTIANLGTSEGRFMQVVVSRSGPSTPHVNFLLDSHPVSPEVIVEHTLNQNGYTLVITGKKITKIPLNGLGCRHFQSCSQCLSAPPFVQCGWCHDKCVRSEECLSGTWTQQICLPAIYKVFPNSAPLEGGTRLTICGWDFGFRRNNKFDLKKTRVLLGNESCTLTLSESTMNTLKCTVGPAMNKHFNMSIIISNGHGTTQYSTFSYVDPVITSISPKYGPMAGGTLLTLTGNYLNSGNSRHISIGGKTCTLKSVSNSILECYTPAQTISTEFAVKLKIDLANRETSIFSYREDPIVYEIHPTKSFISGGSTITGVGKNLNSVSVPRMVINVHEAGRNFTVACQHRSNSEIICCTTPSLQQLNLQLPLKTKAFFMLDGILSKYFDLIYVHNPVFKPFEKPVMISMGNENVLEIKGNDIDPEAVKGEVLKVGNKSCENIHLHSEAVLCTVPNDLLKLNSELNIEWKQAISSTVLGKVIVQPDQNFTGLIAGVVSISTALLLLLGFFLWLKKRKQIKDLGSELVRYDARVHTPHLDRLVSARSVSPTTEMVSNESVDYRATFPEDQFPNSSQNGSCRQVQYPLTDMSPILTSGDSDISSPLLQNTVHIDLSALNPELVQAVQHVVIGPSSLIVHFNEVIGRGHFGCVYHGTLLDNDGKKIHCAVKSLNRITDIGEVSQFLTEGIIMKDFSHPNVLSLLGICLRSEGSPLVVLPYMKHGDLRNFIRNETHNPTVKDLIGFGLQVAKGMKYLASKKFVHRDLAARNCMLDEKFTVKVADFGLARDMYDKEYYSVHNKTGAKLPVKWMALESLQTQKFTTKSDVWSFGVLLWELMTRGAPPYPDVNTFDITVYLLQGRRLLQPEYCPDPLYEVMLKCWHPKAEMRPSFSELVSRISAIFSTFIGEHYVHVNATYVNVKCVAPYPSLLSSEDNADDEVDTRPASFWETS
T2 sequence (P35968 20-1356, species assumed): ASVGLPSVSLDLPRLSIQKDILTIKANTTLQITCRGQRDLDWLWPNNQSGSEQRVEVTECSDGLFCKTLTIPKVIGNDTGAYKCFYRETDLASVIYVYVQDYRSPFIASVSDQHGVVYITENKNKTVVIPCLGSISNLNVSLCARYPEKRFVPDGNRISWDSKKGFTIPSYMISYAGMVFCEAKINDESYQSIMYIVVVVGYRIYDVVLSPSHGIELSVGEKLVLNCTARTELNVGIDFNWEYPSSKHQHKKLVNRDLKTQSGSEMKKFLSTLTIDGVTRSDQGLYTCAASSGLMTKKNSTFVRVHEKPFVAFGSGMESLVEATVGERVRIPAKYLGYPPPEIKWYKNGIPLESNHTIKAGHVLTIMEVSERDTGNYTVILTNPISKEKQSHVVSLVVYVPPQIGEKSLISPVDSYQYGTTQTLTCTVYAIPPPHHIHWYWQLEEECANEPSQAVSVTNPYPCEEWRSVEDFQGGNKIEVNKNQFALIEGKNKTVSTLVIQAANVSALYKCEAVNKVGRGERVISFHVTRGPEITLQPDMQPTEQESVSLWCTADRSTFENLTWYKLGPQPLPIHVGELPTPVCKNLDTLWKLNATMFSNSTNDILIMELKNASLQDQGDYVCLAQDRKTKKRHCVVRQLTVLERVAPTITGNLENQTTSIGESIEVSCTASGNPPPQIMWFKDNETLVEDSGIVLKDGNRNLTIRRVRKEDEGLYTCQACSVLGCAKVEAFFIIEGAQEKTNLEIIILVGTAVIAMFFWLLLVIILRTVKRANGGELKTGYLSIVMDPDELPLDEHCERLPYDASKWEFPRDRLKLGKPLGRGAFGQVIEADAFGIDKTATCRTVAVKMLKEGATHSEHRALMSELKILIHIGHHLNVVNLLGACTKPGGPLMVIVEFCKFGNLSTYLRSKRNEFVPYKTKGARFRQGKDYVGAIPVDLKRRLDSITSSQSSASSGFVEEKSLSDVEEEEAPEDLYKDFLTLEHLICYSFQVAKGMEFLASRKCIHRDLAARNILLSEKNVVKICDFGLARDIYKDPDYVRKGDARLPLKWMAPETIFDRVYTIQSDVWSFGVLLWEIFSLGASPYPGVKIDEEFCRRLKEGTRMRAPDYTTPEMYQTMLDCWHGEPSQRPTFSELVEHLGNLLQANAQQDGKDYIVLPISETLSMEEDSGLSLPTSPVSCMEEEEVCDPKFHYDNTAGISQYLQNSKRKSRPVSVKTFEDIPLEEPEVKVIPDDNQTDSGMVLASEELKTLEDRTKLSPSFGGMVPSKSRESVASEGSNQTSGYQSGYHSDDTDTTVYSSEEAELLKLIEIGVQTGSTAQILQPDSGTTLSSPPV

remaining activity at 0.1 µM (VEGFR2) [%]	Compound	Tumor Growth Inhibition (TGI) [1]	Tumor Growth Inhibition (TGI) [2]	% c-Met kinase activity remains (c-Met)	Tumor Growth Inhibition (TGI) ([3]; 12.5 mg/kg oral once per day, n = 6 × 13)	Tumor Growth Inhibition (TGI) ([3]; 25 mg/kg oral once per day, n = 6 × 13)	Tumor Growth Inhibition (TGI) ([3]; 50 mg/kg oral once per day, n = 3 × 3)	Tumor Growth Inhibition (TGI) ([3]; 50 mg/kg oral once per day, n = 6 × 13)	Tumor Growth Inhibition (TGI) ([3]; 100 mg/kg oral once per day, n = 6 × 13)	Tumor Growth Inhibition (TGI) ([3]; 50 mg/kg oral once per day, n = 2 × 3)
≥ 70	Cl.O=C(Nc1cc(Cl)ccc1F)Nc1cccc2c1ccn2Cc1ccnc2[nH]ccc12 [Example 56, 1-(2-Fluoro-5-chlorophenyl)-3-[1-(1H-pyrrolo[2,3-b]pyridin-4-ylmethyl)-1H-indol-4-yl]urea hydrochloride]	A (the TGI is greater or equal to 50%)	A (the TGI is greater or equal to 50%)	A (the percentage of kinase activity remains is below 70%)	B (the TGI for the compound of this invention is between 0% and 50%)	A (the TGI is greater or equal to 50%)	A (the TGI is greater or equal to 50%)	A (the TGI is greater or equal to 50%)	A (the TGI is greater or equal to 50%)	
< 70	Cl.O=C(Nc1cccc(C(F)(F)F)c1)Nc1cccc2c1ccn2Cc1ccnc2[nH]ccc12 [Example 51, 1-(3-Trifluoromethylphenyl)-3-[1-(1H-pyrrolo[2,3-b]pyridin-4-ylmethyl)-1H-indol-4-yl]urea hydrochloride]	A (the TGI is greater or equal to 50%)	A (the TGI is greater or equal to 50%)	B (the percentage is greater or equal to 70%)						A (the TGI is greater or equal to 50%)

Source: patent US8648086B2, “5,6-bicyclic heteroaryl-containing urea compounds as kinase inhibitors” (Ascepion Pharmaceuticals, Inc., priority 2009, dated 2014)
